According to article PMC6277767, “Broad and Region-Specific Impacts of the Synthetic Cannabinoid CP 55,940 in Adolescent and Adult Female Mouse Brains” (Frontiers in Molecular Neuroscience, 2018):

Tested on: CD1 female mouse brain lipidome
Experiment: Brain-region lipid levels (HPLC/MS/MS lipidomics) 2 h after single i.p. 3 mg/kg CP 55,940 vs vehicle
Format: in vivo
Details: hippocampus
Experimental: The Bloomington Institutional Animal Care and Use Committee of Indiana University reviewed and approved the animal procedures. Female mice from the CD1 strain were utilized to match our study examining THC’s effects on the brain lipidome ([Leishman et al., 2018]). Mice were given a single i.p. injection of either 3 mg/kg CP or 1:1:18 cremophor:ethanol:saline vehicle (please refer to the section “3 mg/kg CP Is Relevant for Synthetic Cannabinoid Abuse and Has Stronger Effects on the Female Mouse Brain Lipidome During Adolescence” for a justification of dose and use of female mice). Three different age groups were given injections: PND 35 and PND 50 adolescents, and adult mice (PND 113). At least eight mice in each age group received CP and at least eight received vehicle. Matching the THC study time course ([Leishman et al., 2018]), mice were sacrificed via rapid decapitation 2 h after injection. Brains were immediately removed and flash-frozen in liquid nitrogen, and then stored at -80°C until dissections were performed. Brains were dissected on an ice-cold dissection plate into the following regions: STR, HIPP, CER, THAL, CTX, HYP, MID, and STEM. These abbreviations for these brain areas will be used exclusively when discussing the results generated by these specific dissections. Each dissected area was immediately placed in liquid nitrogen and then stored at -80°C until used for lipid extraction.
Tissue extracts were performed as previously described ([Bradshaw et al., 2006]; [Stuart et al., 2013]; [Raboune et al., 2014]; [Leishman et al., 2016a],[b], [2017], [2018]). First, samples were shock frozen in liquid nitrogen, weighed, and transferred to a centrifuge tube. The mass of the largest sample was multiplied by 50 to determine how many milliliters of HPLC-grade methanol (Fisher, Fair Lawn, NJ, United States) to add. Then, samples were spiked with 500 pmol deuterium-labeled NAGly (d8NAGly; Cayman Chemical, Ann Arbor, MI, United States). Samples were placed on ice in darkness for 2 h then individually homogenized and centrifuged at 19,000 × g for 20 min at 20°C. Supernatants were diluted with HPLC water (purified in house) to make a solution of 75% water, 25% supernatant. Lipids were partially purified on C18 solid phase extraction columns (Agilent, Palo Alto, CA, United States). A series of four elutions with 1.5 mL of 60%, 75%, 85%, and 100% methanol were collected ([Stuart et al., 2013]; [Leishman et al., 2016a],[b], [2018]).
As previously described ([Bradshaw et al., 2006]; [Tan et al., 2006]; [Smoum et al., 2010]; [Stuart et al., 2013]; [Tortoriello et al., 2013]; [Raboune et al., 2014]; [Leishman et al., 2016a],[b], [2017], [2018]), samples were analyzed using an Applied Biosystems API 3000 triple quadrupole mass spectrometer with electrospray ionization (Foster City, CA, United States). Using an Agilent XDB-C18 reversed phase analytical column and optimized mobile phase gradients, 20 μL from each elution were chromatographed. Two Shimadzu 10ADvp pumps (Columbia, MD, United States) provided the pressure for gradient elution. Mobile phase A: 20% methanol, 80% water (v/v) and 1 mM ammonium acetate (Sigma, St. Louis, MO, United States). Mobile phase B: 100% methanol, 1 mM ammonium acetate. Every method run began with 0% mobile phase B, reached 100% mobile phase B flowing at 0.2 mL/min, and gradually returned to 0% mobile phase B.
This screening library will be referred to as the lipidome when discussing data from this study. HPLC/MS/MS data were analyzed using Analyst software (Applied Biosystems) ([Bradshaw et al., 2006]; [Tan et al., 2006]; [Stuart et al., 2013]; [Tortoriello et al., 2013]; [Raboune et al., 2014]; [Leishman et al., 2016a],[b], [2017], [2018]). Chromatograms (Supplementary Figure 3) were generated by determining the retention time of analytes from the analytical column with a [M-1] or [M+1] parent peak and a fragmentation peak corresponding to the programmed values. […]

[1] = PND 50, 3 mg/kg CP 55,940 vs Veh
[2] = PND 50 female mice, 3mg/kg CP 55,940, mean

CCCCCCC(C)(C)c1ccc([C@@H]2C[C@H](O)CC[C@H]2CCCO)c(O)c1 [CP 55,940]
Linoleic acid, Magnitude (x Veh level) [1]: 0.73 x Veh level | N-arachidonoyl alanine Magnitude (x Veh level) [1]: 0.71 x Veh level | N-arachidonoyl alanine, Direction (relative to Veh) [1]: ↓ | N-arachidonoyl ethanolamine, Direction (relative to Veh) [1]: ↓ | N-arachidonoyl ethanolamine, Magnitude (x Veh level) [1]: 0.64 x Veh level | N-arachidonoyl glycine Direction (relative to Veh) [1]: ↓ | N-arachidonoyl glycine Magnitude (x Veh level) [1]: 0.52 x Veh level | N-arachidonoyl serine Direction (relative to Veh) [1]: ↓ | N-arachidonoyl serine Magnitude (x Veh level) [1]: 0.51 x Veh level | N-arachidonoyl taurine Direction (relative to Veh) [1]: ↓ | N-arachidonoyl taurine Magnitude (x Veh level) [1]: 0.69 x Veh level | N-arachidonoyl tyrosine, Direction (relative to Veh) [1]: ↑ | N-arachidonoyl tyrosine, Magnitude (x Veh level) [1]: 1.38 x Veh level | N-docosahexaenoyl ethanolamine, Direction (relative to Veh) [1]: ↓ | N-docosahexaenoyl ethanolamine, Magnitude (x Veh level) [1]: 0.73 x Veh level | N-linoleoyl ethanolamine, Direction (relative to Veh) [1]: ↓ | N-linoleoyl ethanolamine, Magnitude (x Veh level) [1]: 0.65 x Veh level | N-linoleoyl serine Direction (relative to Veh) [1]: ↑ | N-linoleoyl serine Magnitude (x Veh level) [1]: 1.32 x Veh level | N-oleoyl leucine Direction (relative to Veh) [1]: ↓ | N-oleoyl leucine Magnitude (x Veh level) [1]: 0.77 x Veh level | N-oleoyl serine, Direction (relative to Veh) [1]: ↑ | N-oleoyl serine, Magnitude (x Veh level) [1]: 1.27 x Veh level | PGE2 Direction (relative to Veh) [1]: ↑ | PGE2 Magnitude (x Veh level) [1]: 1.15 x Veh level | PGF2α Direction (relative to Veh) [1]: ↑ | PGF2α Magnitude (x Veh level) [1]: 1.22 x Veh level | 2-arachidonoyl glycerol level [2]: 2.77E-09 | 2-linoleoyl glycerol level [2]: 1.81E-10 | 2-oleoyl glycerol level [2]: 1.71E-09 | 2-palmitoyl glycerol level [2]: 2.49E-10 | 6-ketoPGF1α level [2]: 6.15E-11 | 11-OH-THC level [2]: BDL | 11-nor-9-carboxyTHC level [2]: BDL | Arachidonic acid level [2]: 1.73E-09 | Cannabidiol level [2]: BDL | Linoleic acid level [2]: 5.21E-10 | N-arachidonoyl GABA level [2]: 2.39E-11 | N-arachidonoyl alanine level [2]: 1.94E-12 | N-arachidonoyl dopamine level [2]: BDL | N-arachidonoyl ethanolamine level [2]: 2.58E-11 | N-arachidonoyl glycine level [2]: 4.78E-13 | N-arachidonoyl proline level [2]: BDL | N-arachidonoyl serine level [2]: 5.36E-13 | N-arachidonoyl taurine level [2]: 8.7E-11 | N-arachidonoyl tryptophan level [2]: BDL | N-arachidonoyl tyrosine level [2]: 2.3E-12 | N-docosahexaenoyl ethanolamine level [2]: 1.92E-11 | N-docosahexaenoyl glycine level [2]: 5.66E-14 | N-docosahexaenoyl methionine level [2]: BDL | N-docosahexaenoyl proline level [2]: BDL | N-docosahexaenoyl tryptophan level [2]: BDL | N-docosahexaenoyl valine level [2]: BDL | N-linoleoyl ethanolamine level [2]: 2.31E-11 | N-linoleoyl glycine level [2]: 8.35E-14 | N-linoleoyl methionine level [2]: BDL | N-linoleoyl proline level [2]: BDL | N-linoleoyl serine level [2]: 7.96E-11 | N-linoleoyl tryptophan level [2]: BDL | N-linoleoyl valine level [2]: BDL | N-nervonoyl valine level [2]: BDL | N-oleoyl GABA level [2]: 1.53E-11 | N-oleoyl alanine level [2]: 2.17E-12 | N-oleoyl dopamine level [2]: BDL | N-oleoyl ethanolamine level [2]: 8.7E-11 | N-oleoyl glycine level [2]: 1.25E-13 | N-oleoyl leucine level [2]: 7.72E-13 | N-oleoyl phenylalanine level [2]: 1.52E-13 | N-oleoyl proline level [2]: BDL | N-oleoyl serine level [2]: 4.19E-10 | N-oleoyl tryptophan level [2]: BDL | N-palmitoyl GABA level [2]: 1.72E-11 | N-palmitoyl alanine level [2]: 2.35E-12 | N-palmitoyl ethanolamine level [2]: 2.9E-11 | N-palmitoyl glycine level [2]: 5.47E-12 | N-palmitoyl leucine level [2]: 1.17E-12 | N-palmitoyl methionine level [2]: 9.9E-12 | N-palmitoyl phenylalanine level [2]: 9.31E-14 | N-palmitoyl proline level [2]: BDL | N-palmitoyl serine level [2]: 1.51E-11 | N-palmitoyl tryptophan level [2]: BDL | N-palmitoyl tyrosine level [2]: 9.92E-13 | N-stearoyl GABA level [2]: 1.36E-11 | N-stearoyl alanine level [2]: 2.21E-12 | N-stearoyl ethanolamine level [2]: 1.21E-11 | N-stearoyl glycine level [2]: 2.09E-12 | N-stearoyl leucine level [2]: 1.45E-12 | N-stearoyl phenylalanine level [2]: 9.22E-14 | N-stearoyl proline level [2]: BDL | N-stearoyl serine level [2]: 3.94E-11 | N-stearoyl tryptophan level [2]: BDL | Oleic acid level [2]: 5.52E-10 | PGE2 level [2]: 5.28E-10 | PGF2α level [2]: 3.99E-10 | PhosphoLEA level [2]: 9.47E-12 | THC level [2]: BDL | 2-arachidonoyl glycerol level, Mean (adult, 3 mg/kg CP 55,940): 2.63E-09 | 2-linoleoyl glycerol level, Mean (adult, 3 mg/kg CP 55,940): 1.64E-10 | 2-linoleoyl glycerol: Direction (relative to Veh) (adult, 3 mg/kg CP 55,940): ↓ | 2-linoleoyl glycerol: Magnitude (x Veh level) (adult, 3 mg/kg CP 55,940): 0.74 x Veh level | 2-oleoyl glycerol level, Mean (adult, 3 mg/kg CP 55,940): 1.58E-09 | 2-palmitoyl glycerol level, Mean (adult, 3 mg/kg CP 55,940): 1.43E-10
